The target in assay [1] is T1, human JAK2 (Homo sapiens, UniProt O60674).
T1 construct: catalytic domain (amino acids 808-1132; catalog number PV4210); GST; purchased Invitrogen PV4210
As to the kind of experiment: JAK2 inhibition assay (polyGT substrate / Ulight-JAK1 peptide). Format: biochemical. The settings on record: recombinant human JAK2 catalytic domain; polyGT or Ulight-JAK1 peptide assay. Here is the method:
1.2 JAK2 Inhibition Assay
1.2.1 JAK2 Assay polyGT Substrate
0.025 mU of JAK2 is incubated with 2.5 μg polyGT substrate (Sigma catalog number P0275) in kinase reaction buffer (5 mM MOPS pH 7.5, 9 mM MgAc, 0.3 mM EDTA, 0.06% Brij and 0.6 mM DTT, 1 μM non-radioactive ATP, 0.25 μCi ^33P-gamma-ATP (GE Healthcare, catalog number AH9968) final concentrations) with or without 5 μL containing test compound or vehicle (DMSO, 1% final concentration), in a total volume of 25 μL, in a polypropylene 96-well plate (Greiner, V-bottom). After 90 min at 30° C., reactions are stopped by adding of 25 μL/well of 150 mM phosphoric acid. […] Plates are washed 6 times with 300 μL per well of a 75 mM phosphoric acid solution and the bottom of the plates is sealed. 40 μL/well of Microscint-20 is added, the top of the plates is sealed and readout is performed using the Topcount (Perkin Elmer). Kinase activity is calculated by subtracting counts per min (cpm) obtained in the presence of a positive control inhibitor (10 μM staurosporine) from cpm obtained in the presence of vehicle. The ability of a test compound to inhibit this activity is determined as:
Percentage inhibition=((cpm determined for sample with test compound present−cpm determined for sample with positive control inhibitor)divided by(cpm determined in the presence of vehicle−cpm determined for sample with positive control inhibitor))*100.
Dose dilution series are prepared for the compounds enabling the testing of dose-response effects in the JAK2 assay and the calculation of the IC50 for each compound.
1.2.2 JAK2 Ulight-JAK1 Peptide Assay
After 60 min at room temperature, reactions were stopped by adding 20 μL/well of detection mixture (1× detection buffer (Perkin Elmer, catalog number CR97-100C), 0.5 nM Europium-anti-phosphotyrosine (PT66) (Perkin Elmer, catalog number AD0068), 10 mM EDTA). […] Kinase activity was calculated by subtracting relative fluorescence units (RFU) obtained in the presence of a positive control inhibitor (10 μM staurosporine) from RFU obtained in the presence of vehicle. The ability of a test compound to inhibit this activity was determined as:
Percentage inhibition=((RFU determined for sample with test compound present−RFU determined for sample with positive control inhibitor)divided by(RFU determined in the presence of vehicle−RFU determined for sample with positive control inhibitor))*100.
Dose dilution series are prepared for compound enabling the testing of dose-response effects in the JAK2 assay and the calculation of the IC50 for the compound. Each compound is routinely tested at concentration of 20 μM followed by a 1/5 serial dilution, 10 points in a final concentration of 1% DMSO. […] The data are expressed as the average IC50 from the assays±standard error of the mean.

Assay [2] concerns the target T2, human JAK1 (Homo sapiens, UniProt P23458).
T2 construct: catalytic domain, amino acids 866-1154; catalog number PV4774; purchased Invitrogen PV4774
Briefly: JAK1 inhibition assay (polyGT substrate / Ulight-JAK1 peptide). The class given is biochemical. Particulars: recombinant human JAK1 catalytic domain; polyGT or Ulight-JAK1 peptide assay. The gist of the method: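 Two formats. PolyGT radiometric: 45 min at 30 °C, stopped with phosphoric acid, counted as cpm. Ulight-JAK1 peptide: 60 min at room temperature, stopped with Eu-anti-phosphotyrosine/EDTA, read as RFU. Percent inhibition normalised to vehicle and 10 μM staurosporine.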

As usually defined, the IC50 is the point on the concentration scale where inhibition reaches its midpoint.

T2 sequence (P23458 866-1154): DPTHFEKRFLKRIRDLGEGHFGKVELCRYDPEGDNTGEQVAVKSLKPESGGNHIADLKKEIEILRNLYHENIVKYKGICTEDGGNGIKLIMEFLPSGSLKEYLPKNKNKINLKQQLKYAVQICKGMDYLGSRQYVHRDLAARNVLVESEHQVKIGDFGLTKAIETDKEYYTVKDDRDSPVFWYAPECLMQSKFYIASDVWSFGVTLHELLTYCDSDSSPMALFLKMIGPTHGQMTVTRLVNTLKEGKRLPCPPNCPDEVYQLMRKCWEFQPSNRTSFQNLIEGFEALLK
T1 sequence (O60674 808-1132): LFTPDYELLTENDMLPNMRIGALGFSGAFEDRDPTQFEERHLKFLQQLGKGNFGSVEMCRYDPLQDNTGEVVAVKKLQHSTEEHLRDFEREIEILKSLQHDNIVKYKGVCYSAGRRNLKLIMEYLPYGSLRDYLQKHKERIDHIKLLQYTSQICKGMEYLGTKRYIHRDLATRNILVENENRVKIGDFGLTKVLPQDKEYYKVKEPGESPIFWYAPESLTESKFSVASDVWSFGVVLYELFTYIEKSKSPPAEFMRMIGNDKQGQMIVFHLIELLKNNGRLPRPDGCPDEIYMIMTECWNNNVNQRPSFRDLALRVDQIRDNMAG

As for `Cc1cc(OCC(=O)N(C)C)ccc1N(C)c1cc2c(cn1)ncn2C` [Compound 51, N,N-dimethyl-2-(3-methyl-4-(methyl(1-methyl-1H-imidazo[4,5-c]pyridin-6-yl)amino)phenoxy)acetamide], the IC50 in assay [1] and in assay [2] was more than 1000 nM each time.
As for `Cc1cc(OCCN2CCCC2)ccc1N(C)c1cc2c(cn1)ncn2C` [Compound 52, N,1-dimethyl-N-(2-methyl-4-(2-(pyrrolidin-1-yl)ethoxy)phenyl)-1H-imidazo[4,5-c]pyridin-6-amine], the IC50 in assay [1] was more than 1000 nM; in assay [2] it was 501 to 1000 nM.
The like results for `Cc1cc(OCc2ccccc2)ccc1N(C)c1cc2c(cn1)ncn2C` [Compound 53, N-(4-(benzyloxy)-2-methylphenyl)-N,1-dimethyl-1H-imidazo[4,5-c]pyridin-6-amine] were, in that order, more than 1000 nM and 101 to 500 nM.
The like results for `Cc1cc(OCc2ccc(Cl)cc2)ccc1N(C)c1cc2c(cn1)ncn2C` [Compound 54, N-(4-(4-chlorobenzyloxy)-2-methylphenyl)-N,1-dimethyl-1H-imidazo[4,5-c]pyridin-6-amine] were, in that order, more than 1000 nM and 501 to 1000 nM.
The like results for `Cc1ccc(OCCN2CCCC2)cc1N(C)c1cc2c(cn1)ncn2C` [Compound 58, N,1-dimethyl-N-(2-methyl-5-(2-(pyrrolidin-1-yl)ethoxy)phenyl)-1H-imidazo[4,5-c]pyridin-6-amine] were, in that order, more than 1000 nM and more than 1000 nM.
On to `Cc1ccc(OCC(=O)N(C)C)cc1N(C)c1cc2c(cn1)ncn2C` [Compound 59, N,N-dimethyl-2-(4-methyl-3-(methyl(1-methyl-1H-imidazo[4,5-c]pyridin-6-yl)amino)phenoxy)acetamide], for which the figures for the IC50 in assay [1] and in assay [2] were more than 1000 nM and 101 to 500 nM, respectively.
As for `Cc1c(OCC(=O)N(C)C)cccc1N(C)c1cc2c(cn1)ncn2C` [Compound 65, N,N-dimethyl-2-(2-methyl-3-(methyl(1-methyl-1H-imidazo[4,5-c]pyridin-6-yl)amino)phenoxy)acetamide], the IC50 in assay [1] and in assay [2] was more than 1000 nM in each case.
On to `Cc1c(OCCCC#N)cccc1N(C)c1cc2c(cn1)ncn2C` [Compound 66, 4-(2-methyl-3-(methyl(1-methyl-1H-imidazo[4,5-c]pyridin-6-yl)amino)phenoxy)butane nitrile], for which the IC50 in assay [1] was more than 1000 nM; in assay [2], 101 to 500 nM.
The like results for `Cc1c(OCc2cccnc2)cccc1N(C)c1cc2c(cn1)ncn2C` [Compound 69, N,1-dimethyl-N-(2-methyl-3-(pyridin-3-ylmethoxy)phenyl)-1H-imidazo[4,5-c]pyridin-6-amine] were, in that order, more than 1000 nM and 101 to 500 nM.
The like results for `Cc1c(OCC(C)C)cccc1N(C)c1cc2c(cn1)ncn2C` [Compound 70, N-(3-isobutoxy-2-methylphenyl)-N,1-dimethyl-1H-imidazo[4,5-c]pyridin-6-amine] were, in that order, 501 to 1000 nM and 101 to 500 nM.
The like results for `COc1ccc(Cc2ccc(N(C)c3cc4c(cn3)ncn4C)c(C)c2)cc1` [Compound 74, N-(4-(4-methoxybenzyl)-2-methylphenyl)-N,1-dimethyl-1H-imidazo[4,5-c]pyridin-6-amine] were, in that order, more than 1000 nM and 501 to 1000 nM.
As to `Cc1c(OCc2ccccc2)cccc1N(C)c1cc2c(cn1)ncn2C` [Compound 75, N-(3-(benzyloxy)-2-methylphenyl)-N,1-dimethyl-1H-imidazo[4,5-c]pyridin-6-amine], the IC50 in assay [1] and in assay [2] was 501 to 1000 nM in each case.
For `Cc1c(OCc2ccc(Cl)cc2)cccc1N(C)c1cc2c(cn1)ncn2C` [Compound 76], the IC50 in assay [1] and in assay [2] was more than 1000 nM in each case.
As to `Cc1c(OCCN2CCCC2)cccc1N(C)c1cc2c(cn1)ncn2C` [Compound 77, N,1-dimethyl-N-(2-methyl-3-(2-(pyrrolidin-1-yl)ethoxy)phenyl)-1H-imidazo[4,5-c]pyridin-6-amine], the IC50 in assay [1] and in assay [2] was more than 1000 nM each time.
`CCc1ccncc1N(C)c1cc2c(cn1)ncn2C` [Compound 78, N-(4-ethylpyridin-3-yl)-N,1-dimethyl-1H-imidazo[4,5-c]pyridin-6-amine]: the values for the IC50 in assay [1] and in assay [2] were more than 1000 nM and 101 to 500 nM, respectively.
Turning to `CCc1ncccc1N(C)c1cc2c(cn1)ncn2C` [Compound 79, N-(2-ethylpyridin-3-yl)-N,1-dimethyl-1H-imidazo[4,5-c]pyridin-6-amine], the IC50 in assay [1] and in assay [2] was more than 1000 nM each time.
With `CCc1ccc(C(=O)N(C)C)cc1N(C)c1cc2c(cn1)ncn2C` [Compound 87, 4-Ethyl-N,N-dimethyl-3-(methyl(1-methyl-1H-imidazo[4,5-c]pyridin-6-yl)amino)benzamide], the values for the IC50 in assay [1] and in assay [2] were more than 1000 nM and 101 to 500 nM, respectively.
As to `Cc1cc(Oc2ccc(C#N)nc2)ccc1N(C)c1cc2c(cn1)ncn2C` [Compound 88, 5-(3-methyl-4-(methyl(1-methyl-1H-imidazo[4,5-c]pyridin-6-yl)amino)phenoxy)picolino-nitrile], the figures for the IC50 in assay [1] and in assay [2] were more than 1000 nM and 101 to 500 nM, respectively.
The like results for `Cc1c(Oc2ccc(C#N)nc2)cccc1N(C)c1cc2c(cn1)ncn2C` [Compound 90, 5-(2-methyl-3-(methyl(1-methyl-1H-imidazo[4,5-c]pyridin-6-yl)amino)phenoxy)picolino-nitrile] were, in that order, more than 1000 nM and 101 to 500 nM.
Take `CCc1c(C(=O)OC)cccc1N(C)c1cc2c(cn1)ncn2C` [Compound 96, methyl 2-ethyl-3-(methyl(1-methyl-1H-imidazo[4,5-c]pyridin-6-yl)amino)benzate]: the IC50 in assay [1] and in assay [2] was more than 1000 nM throughout.
On to `Cc1c(OCc2ccc(C#N)nc2)cccc1N(C)c1cc2c(cn1)ncn2C` [Compound 97, 5-((2-methyl-3-(methyl(1-methyl-1H-imidazo[4,5-c]pyridin-6-yl)amino)phenoxy)methyl) picolinonitrile], for which the results for the IC50 in assay [1] and in assay [2] were more than 1000 nM and 101 to 500 nM, respectively.
The like results for `CCc1cc(C(=O)NCCc2ccccc2)ccc1N(C)c1cc2c(cn1)ncn2C` [Compound 99, 3-ethyl-4-(methyl(1-methyl-1H-imidazo[4,5-c]pyridin-6-yl)amino)-N-phenethylbenzamide] were, in that order, more than 1000 nM and 101 to 500 nM.
The like results for `CCc1cc(C(=O)N2CCN(C)CC2)ccc1N(C)c1cc2c(cn1)ncn2C` [Compound 100, (3-ethyl-4-(methyl(1-methyl-1H-imidazo[4,5-c]pyridin-6-yl)amino)phenyl)(4-methylpiperazin-1-yl)methanone] were, in that order, more than 1000 nM and 501 to 1000 nM.
The like results for `CCc1cc(C(=O)N2CCS(=O)(=O)CC2)ccc1N(C)c1cc2c(cn1)ncn2C` [Compound 104, (1,1-Dioxothiomorpholin-4-yl)-{3-ethyl-4-[methyl-(1-methyl-1H-imidazo[4,5-c]pyridin-6-yl)-amino]-phenyl}-methanone] were, in that order, more than 1000 nM and more than 1000 nM.
Turning to `CCc1cc(C(=O)N2CCC(N(C)C)C2)ccc1N(C)c1cc2c(cn1)ncn2C` (stereo not drawn) [Compound 106, (3-(dimethylamino)pyrrolidin-1-yl)(3-ethyl-4-(methyl(1-methyl-1H-imidazo[4,5-c]pyridin-6-yl)amino)phenyl)methanone], the IC50 in assay [1] and in assay [2] was more than 1000 nM each time.
On to `CCc1ccc(C(N)=O)cc1N(C)c1cc2c(cn1)ncn2C` [Compound 108, 4-ethyl-3-(methyl(1-methyl-1H-imidazo[4,5-c]pyridin-6-yl)amino)benzamide], for which the IC50 was more than 1000 nM in assay [1] and 101 to 500 nM in assay [2].
The like results for `CCc1ccc(CO)cc1N(C)c1cc2c(cn1)ncn2C` [Compound 109, (4-Ethyl-3-(methyl(1-methyl-1H-imidazo[4,5-c]pyridin-6-yl)amino)phenyl)MeOH] were, in that order, more than 1000 nM and 101 to 500 nM.

The values are drawn from patent US20130217664A1, “NOVEL COMPOUNDS USEFUL FOR THE TREATMENT OF DEGENERATIVE AND INFLAMMATORY DISEASES” (priority 2012, published 2013).
